From patent US8119681B2, “2-[1-phenyl-5-hydroxy or methoxy-4alpha-methyl-hexahydrocyclopenta [ƒ]indazole-5-YL]ethyl phenyl derivatives as glucocorticoid receptor ligands” (Merck Sharp & Dohme Corp., priority 2006, dated 2012)
Where two headings read alike, the source gives them in different places.

Target: T1, human GR (Homo sapiens, UniProt P04150)
T1 sequence (P04150 1-777): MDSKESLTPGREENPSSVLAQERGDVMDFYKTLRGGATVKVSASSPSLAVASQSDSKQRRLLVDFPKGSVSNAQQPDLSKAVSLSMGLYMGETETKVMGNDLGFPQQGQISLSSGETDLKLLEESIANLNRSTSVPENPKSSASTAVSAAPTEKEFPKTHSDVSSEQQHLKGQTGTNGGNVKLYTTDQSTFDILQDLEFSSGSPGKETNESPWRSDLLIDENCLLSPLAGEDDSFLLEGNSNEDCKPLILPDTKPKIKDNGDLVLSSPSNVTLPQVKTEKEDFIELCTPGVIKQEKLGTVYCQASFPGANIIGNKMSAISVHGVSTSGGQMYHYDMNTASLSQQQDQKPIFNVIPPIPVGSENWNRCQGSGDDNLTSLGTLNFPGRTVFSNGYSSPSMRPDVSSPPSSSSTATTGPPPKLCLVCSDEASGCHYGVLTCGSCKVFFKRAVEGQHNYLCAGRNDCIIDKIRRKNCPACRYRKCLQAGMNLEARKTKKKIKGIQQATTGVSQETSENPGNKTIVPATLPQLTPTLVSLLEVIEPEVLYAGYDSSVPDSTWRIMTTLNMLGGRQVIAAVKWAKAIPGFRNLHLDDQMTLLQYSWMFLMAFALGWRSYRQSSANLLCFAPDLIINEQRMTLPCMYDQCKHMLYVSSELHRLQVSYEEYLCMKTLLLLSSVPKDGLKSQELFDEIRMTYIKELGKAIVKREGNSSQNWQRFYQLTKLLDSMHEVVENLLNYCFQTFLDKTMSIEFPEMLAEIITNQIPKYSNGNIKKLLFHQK
Assay: Transrepression Assay (GITAR), TNFα-β-lactamase reporter gene in U937 cells
Format: cell-based
Parameters: U937 cells contain an endogenous glucocorticoid receptor (GR); endogenous in cells; host or cells: U937 cells stably transfected with the TNF-α promoter/β-lactamase reporter only
Source text: Transrepression Assay (GITAR)
This assay assesses the ability of test compounds to control transcription from the TNFα-β-lactamase reporter gene in U937 cells, a human myelomonocytic leukemia cell line that naturally expresses the human GR. The assay measures compound dependent-repression of the TNFa promoter linked to a reporter gene.
The human U937 cells that had been stably transfected with the TNF-α promoter driving β-lactamase are used for this assay. U937 cells contain an endogenous glucocorticoid receptor (GR). […] 50,000 cells/well are plated in 96 well black-walled plates the day of assay. Test compounds are added 10 μL/well, and cells are incubated at 37° C. for 30˜45 min. For assaying compounds, first dilute 1:10 in DMSO to make 1 mM, then further dilute 1:100 in medium to make 10× stock prior to adding to the cells. Add 50 ng/ml PMA (Sigma, cat# P8139) 10 μL/well to a final concentration 5 ng/ml, and 1 μg/ml LPS (Sigma, cat# L4130) 10 μL/well to a final concentration 100 ng/ml. Incubate cells at 370 C overnight for ˜18 hr. PMA is stored frozen as 100 μg/ml stock in DMSO. Dilute 1:10 in DMSO for a working stock of 10 μg/ml and store at −20 C. For assaying, dilute the 10 μg/ml working stock 1:200 in medium to make a 10× solution (50 ng/ml). Store frozen LPS at 1 mg/ml in PBS, dilute 1:1000 in medium to make 10× (1 μg/ml) for the assay. Add 6× loading buffer (CCF2-AM) 20 μL/well, and incubate at room temperature for 70˜90 min. […] The activity repressed by 100 nM dexamethasone alone is set as 100% activity.

[1] = U-937, 100 nM dexamethasone = 100% activity, read-out: maximal activity in the transrepression assay

| Emax [1] | SMILES | Emax (U-937, read-out: maximal activity in the transrepression assay) |
| --- | --- | --- |
| 5 to 100% | C[C@]12Cc3cnn(-c4ccc(F)cc4)c3C=C1CC[C@@]2(O)CCc1ccccc1C(=O)O [Example 1, 2-{2-[(4αS,5R)-1-(4-Fluorophenyl)-5-hydroxy-4α-methyl-1,4,4α,5,6,7-hexahydrocyclopenta[f]indazol-5-yl]ethyl}benzoic acid] |  |
| 5 to 100% | C[C@]12Cc3cnn(-c4ccc(F)cc4)c3C=C1CC[C@@]2(O)CCc1ccccc1CNC(=O)C1CC1 [Example 4] |  |
| 5 to 100% | CCOC(=O)NCc1ccccc1CC[C@]1(O)CCC2=Cc3c(cnn3-c3ccc(F)cc3)C[C@@]21C [Example 6, Ethyl(2-(2-[(4αS,5R)-1-(4-fluorophenyl)-5-hydroxy-4α-methyl-1,4,4α,5,6,7-hexahydrocyclopenta(f)indazol-5-yl]ethyl)benzyl)carbamate] |  |
| 5 to 100% | C[C@]12Cc3cnn(-c4ccc(F)cc4)c3C=C1CC[C@@]2(O)CCc1ccccc1C1(NS(=O)(=O)C2CC2)CC1 [Example 7, N-[1-(2-{2-[(4αS,5R)-1-(4-Fluorophenyl)-5-hydroxy-4α-methyl-1,4,4α,5,6,7-hexahydrocyclopenta[f]indazol-5-yl]ethyl}phenyl)cyclopropyl]cyclopropanesulfonamide] |  |
| 5 to 100% | C[C@@H](NS(=O)(=O)C1CC1)c1ccccc1CC[C@]1(O)CCC2=Cc3c(cnn3-c3ccc(F)cc3)C[C@@]21C [Example 8, N-[(1R)-1-(2-{2-[(4αS,5R)-1-(4-Fluorophenyl)-5-hydroxy-4α-methyl-1,4,4α,5,6,7-hexahydrocyclopenta[f]indazol-5-yl]ethyl}phenyl)ethyl]cyclopropanesulfonamide] |  |
| 5 to 100% | CCNC(=O)OCc1ccccc1CC[C@]1(O)CCC2=Cc3c(cnn3-c3ccc(F)cc3)C[C@@]21C [Example 9] |  |
| 5 to 100% | C[C@]12Cc3cnn(-c4ccc(F)cc4)c3C=C1CC[C@@]2(O)CCc1ccccc1-c1ccc(F)nc1 [Example 10, (4αS,5R)-1-(4-fluorophenyl)-5-{2-[2-(6-fluoropyridin-3-yl)phenyl]ethyl}-4α-methyl-1,4,4α,5,6,7-hexahydrocyclopenta[f]indazol-5-ol] |  |
| 5 to 100% | CCOC(=O)Nc1ccccc1CC[C@]1(O)CCC2=Cc3c(cnn3-c3ccc(F)cc3)C[C@@]21C [Example 12, ethyl (2-{2-[(4αS,5R)-1-(4-fluorophenyl)-5-hydroxy-4α-methyl-1,4,4α,5,6,7-hexahydrocyclopenta[f]indazol-5-yl]ethyl}phenyl)carbamate] |  |
| 5 to 100% | CCNC(=O)Nc1ccccc1CC[C@]1(O)CCC2=Cc3c(cnn3-c3ccc(F)cc3)C[C@@]21C [Example 13, N-ethyl-N′-(2-{2-[(4αS,5R)-1-(4-fluorophenyl)-5-hydroxy-4α-methyl-1,4,4α,5,6,7-hexahydrocyclopenta[f]indazol-5-yl]ethyl}phenyl)urea] |  |
| 5 to 100% | C[C@]12Cc3cnn(-c4ccc(F)cc4)c3C=C1CC[C@@]2(O)CCc1ccccc1O [Example 16, (4αS,5R)-1-(4-fluorophenyl)-5-[2-(2-hydroxyphenyl)ethyl]-4α-methyl-1,4,4α,5,6,7-hexahydrocyclopenta[f]indazol-5-ol] |  |
| 5 to 100% | CCOC(=O)Oc1ccccc1CC[C@]1(O)CCC2=Cc3c(cnn3-c3ccc(F)cc3)C[C@@]21C [Example 17, Ethyl-(2-(2-[(4αS,5R)-1-(4-fluorophenyl)-5-hydroxy-4α-methyl-1,4,4α,5,6,7-hexahydrocyclopenta(f)indazol-5-yl]ethyl)phenyl)carbonate] |  |
|  | CCNC(=O)Oc1ccccc1CC[C@]1(O)CCC2=Cc3c(cnn3-c3ccc(F)cc3)C[C@@]21C [Example 18, 2-{2-[(4αS,5R)-1-(4-fluorophenyl)-5-hydroxy-4α-methyl-1,4,4α,5,6,7-hexahydrocyclopenta[f]indazol-5-yl]ethyl}phenyl ethylcarbamate] | 5 to 100% |
| 5 to 100% | C[C@]12Cc3cnn(-c4ccc(F)cc4)c3C=C1CC[C@@]2(O)CCc1ccccc1C#N [Example 20, 2-{2-[(4αS,5R)-1-(4-fluorophenyl)-5-hydroxy-4α-methyl-1,4,4α,5,6,7-hexahydrocyclopenta[f]indazol-5-yl]ethyl}benzonitrile] |  |
| 5 to 100% | C[C@]12Cc3cnn(-c4ccc(F)cc4)c3C=C1CC[C@@]2(O)CCc1ccccc1C=O [Example 21, 2-{2-[(4αS,5R)-1-(4-Fluorophenyl)-5-hydroxy-4α-methyl-1,4,4α,5,6,7-hexahydrocyclopenta[f]indazol-5-yl]ethyl}benzaldehyde] |  |
| 5 to 100% | C[C@]12Cc3cnn(-c4ccc(F)cc4)c3C=C1CC[C@@]2(O)CCc1ccccc1S(N)(=O)=O [Example 22, 2-{2-[(4αS,5R)-1-(4-fluorophenyl)-5-hydroxy-4α-methyl-1,4,4α,5,6,7-hexahydrocyclopenta[f]indazol-5-yl]ethyl}benzenesulfonamide] |  |
| 5 to 100% | CCOC1(OCC)CN(C(=O)c2ccccc2CC[C@]2(O)CCC3=Cc4c(cnn4-c4ccc(F)cc4)C[C@@]32C)C1 [Example 24, (4αS,5R)-5-(2-{2-[(3,3-diethoxyazetidin-1-yl)carbonyl]phenyl}ethyl)-1-(4-fluorophenyl)-4α-methyl-1,4,4α,5,6,7-hexahydrocyclopenta[f]indazol-5-ol] |  |
| 5 to 100% | CC(C)(C)CNC(=O)c1ccccc1CC[C@]1(O)CCC2=Cc3c(cnn3-c3ccc(F)cc3)C[C@@]21C [Example 25, N-(2,2-dimethylpropyl)-2-{2-[(4αS,5R)-1-(4-fluorophenyl)-5-hydroxy-4α-methyl-1,4,4α,5,6,7-hexahydrocyclopenta[f]indazol-5-yl]ethyl}benzamide] |  |
| 5 to 100% | CCNC(=O)c1ccccc1CC[C@]1(O)CCC2=Cc3c(cnn3-c3ccccc3)C[C@@]21C [Example 27, N-ethyl-2-{2-[(4αS,5R)-5-hydroxy-4α-methyl-1-phenyl-1,4,4α,5,6,7-hexahydrocyclopenta[f]indazol-5-yl]ethyl}benzamide] |  |
| 5 to 100% | CCNC(=O)c1ccccc1CC[C@]1(O)CCC2=Cc3c(cnn3-c3cccc(F)c3)C[C@@]21C [Example 36, N-ethyl-2-{2-[(4αS,5R)-1-(3-fluorophenyl)-5-hydroxy-4α-methyl-1,4,4α,5,6,7-hexahydrocyclopenta[f]indazol-5-yl]ethyl}benzamide] |  |
| 5 to 100% | CC1(NC(=O)c2ccccc2CC[C@]2(O)CCC3=Cc4c(cnn4-c4ccc(F)c(F)c4)C[C@@]32C)CC1 [Example 39, 2-{2-[(4αS,5R)-1-(3,4-difluorophenyl)-5-hydroxy-4α-methyl-1,4,4α,5,6,7-hexahydrocyclopenta[f]indazol-5-yl]ethyl}-N-(1-methylcyclopropyl)benzamide] |  |
| 5 to 100% | C=CCN(C)C(=O)c1ccccc1CC[C@]1(O)CCC2=Cc3c(cnn3-c3ccc(F)cc3)C[C@@]21C [Example 50, N-allyl-2-{2-[(4αS,5R)-1-(4-fluorophenyl)-5-hydroxy-4α-methyl-1,4,4α,5,6,7-hexahydrocyclopenta[f]indazol-5-yl]ethyl}-N-methylbenzamide] |  |
| 5 to 100% | C=C(F)CNC(=O)c1ccccc1CC[C@]1(O)CCC2=Cc3c(cnn3-c3ccc(F)cc3)C[C@@]21C [Example 53, 2-{2-[(4αS,5R)-1-(4-fluorophenyl)-5-hydroxy-4α-methyl-1,4,4α,5,6,7-hexahydrocyclopenta[f]indazol-5-yl]ethyl}-N-(2-fluoroprop-2-en-1-yl)benzamide] |  |
